Test results from US9381245B2, “Methods for inhibiting osteolysis” (New York University, priority 2012, dated 2016).
Entries after “also recorded” stand apart in the source; their conditions may differ.

How the values were obtained:
[1] = tested on: bone marrow cells induced to differentiate into osteoclasts; assay: Osteoclast differentiation of bone marrow cells with RANKL and M-CSF (TRAP+ osteoclasts); format: cell-based, mice
Procedure: (§1) A.) Bone marrow cells from WT and radiation chimeric netrin^−/− bone marrow mice were isolated and induced to differentiate into osteoclasts by incubation with RANKL and M-CSF. […] Cells from 5 different mice repeated in duplicate. […] A2A receptor stimulation reduces Unc5b, but not DCC, expression. Representative of 2 experiments. C. Bone mineral density (BMD) determined by Pixamouse small animal Dexa scanner. WT mice and Netrin1 KO mice are chimeras generated by infusion of either normal or netrin-1 deficient fetal liver into lethally irradiated congenic C57Black/6 mice. BMD was measured 18 weeks after transplant. Shown are the results of determinations on 5 mice in each group. […] Representative of 5 different mice with each treatment. E. Soft tissue from patients stained for semaphorin 4D (original magnification 800×). On the left is soft tissue obtained at the time of hip replacement (Representative of 14). […] On the right is tissue obtained at time of prosthesis revision (representative of 12).
Consistent with this observation it was shown that radiation chimeras with netrin-1^−/− replacement bone marrow have increased bone mineral density, as measured by Dexa scan (FIG. 4). […]

netrin-1 [2] = assay: Western blot of netrin-1 in supernate of RAW264.7 cells differentiating to osteoclasts; format: cell-based, murine; conditions: CGS21680 1 μM, RANKL and M-CSF
Procedure: as §1

Unc5b = assay: Western blot of Unc5b in RAW264.7 cells differentiating to osteoclasts; format: cell-based, murine; conditions: CGS21680 1 μM
Procedure: as §1

sema4D-expressing cells = assay: Sema4D staining of calvarium in murine model of wear particle-induced osteolysis; format: in vivo; conditions: wear particle-treated mice; immunostaining
Procedure: A.) Total cell lysates from primary murine bone marrow cells alone (basal) or after osteoclast differentiation in the presence of saline, CGS21680 (1 μM) with/without ZM241385 (1 μM) were subject to Western Blot detection of sema4D. Shown is a representative experiment of 3. B.) RAW264.7 osteoclasts, infected with a lentiviral vector expressing either shRNA for the catalytic subunit of PKA, scrambled shRNA, or primary murine bone marrow cells were cultured in the presence of saline (Black line) or CGS21680 (1 μM, Red Line) with/without ZM241385 (1 μM, Blue Line) for the time periods indicated before harvest of the cells, collection of RNA and real time RTPCR. Results represent the means (±SEM) of 5 separate determinations. C. Calvarium from sham or wear particle-treated wild type (C57B1/6) mice or adenosine A2A receptor knockout mice (C57B1/6 background) were stained for sema4D. D. Soft tissue from patients stained for semaphorin 4D (original magnification 800×). On the left is soft tissue obtained at the time of joint replacement (Representative of 14). On the right is tissue obtained at time of prosthesis revision (representative of 12). […] In this model ultra high molecular weight polyethylene particles (UHMWPE) are injected into an air pouch overlying the calvaria and the area of bone resorption is measured. […]

semaphorin 4D = assay: Sema4D expression (Western blot, real time RT-PCR) in osteoclasts from primary murine bone marrow cells and RAW264.7 cells; format: cell-based; conditions: CGS21680 1 μM; protein kinase A-dependent
Procedure: A.) Total cell lysates from primary murine bone marrow cells alone (basal) or after osteoclast differentiation in the presence of saline, CGS21680 (1 μM) with/without ZM241385 (1 μM) were subject to Western Blot detection of sema4D. Shown is a representative experiment of 3. B.) RAW264.7 osteoclasts, infected with a lentiviral vector expressing either shRNA for the catalytic subunit of PKA, scrambled shRNA, or primary murine bone marrow cells were cultured in the presence of saline (Black line) or CGS21680 (1 μM, Red Line) with/without ZM241385 (1 μM, Blue Line) for the time periods indicated before harvest of the cells, collection of RNA and real time RTPCR. Results represent the means (±SEM) of 5 separate determinations. C. Calvarium from sham or wear particle-treated wild type (C57B1/6) mice or adenosine A2A receptor knockout mice (C57B1/6 background) were stained for sema4D. D. Soft tissue from patients stained for semaphorin 4D (original magnification 800×). On the left is soft tissue obtained at the time of joint replacement (Representative of 14). On the right is tissue obtained at time of prosthesis revision (representative of 12).

[3] = tested on: wear particle-induced osteolysis; assay: New bone formation at sites of wear particle-induced osteolysis (Xenolight Rediject Bone Probe 680, IVIS); format: in vivo, mice; conditions: daily injections of CGS21680 into air pouch over calvarium
Procedure: Mice (C57B1/6) underwent formation of an air pouch over the calvarium and then exposed to saline (sham) or wear particles […] followed by daily injections of 200 μl of saline or CGS21680, as previously described. Animals were injected with Xenolight Rediject Bone Probe 680 (2 nmoles in 150 ul) followed by scanning in the IVIS apparatus. The intensity of staining is indicated by increasing yellow coloration. The fluorescence is detectable without change for 3-4 days and persists for as long as 2 weeks although all of these scans were taken on the day of injection. Shown are representative scans of ⅕ animals per group. The intensity of fluorescence was quantitated in a specific area of interest using software provided with the apparatus and the mean (±SEM) was calculated for 5 animals in each. In these experiments osteolysis will be monitored as porosity of the calvaria, measured by microCT, as has been previously described (Mediero, et al., Sci Transl Med, 2012. 4(135): 135-65). […] In addition, sema4D, netrin-1, GM-CSF, M-CSF, IP-10, MCP-1, IL-1, TNF, IL-6, IL-10, osteoprotegerin, osteocalcin and RANKL in supernates of cultured calvaria will be quantified by luminex assay, as has been previously described (Mediero, et al., Sci Transl Med, 2012. 4(135): 135-65). […]

RANK = RANK staining of calvarium in murine model of wear particle-induced osteolysis; format: in vivo, mice; conditions: wear particles 4 weeks; saline containing CGS21680 1 μM
Procedure: (§2) A. Shown are representative sections (from 10 different mice) of mouse calvarium after formation of an air pouch alone (sham) or after formation of an air pouch and exposure to wear particles for 4 weeks in the presence of saline or saline containing CGS21680 (1 μM), as we have previously described (Mediero, et al., Sci Transl Med, 2012. 4(135): 135-65). Dark brown staining is positive. B. RNA was isolated from normal human osteoblasts (Alizarin Red+/Alkaline Phosphatase+ cells) after differentiation from normal marrow cells in the presence or absence of CGS21680 (1 μM). Real time RT-PCR was carried out for RANKL and normalized to GAPDH. Shown are mean (+/−SD) results of two different samples carried out in duplicate.

RANKL [4] = assay: RANKL staining of calvarium in murine model of wear particle-induced osteolysis; format: in vivo, mice; conditions: wear particles 4 weeks; saline containing CGS21680 1 μM
Procedure: as §2

osteoprotegerin = assay: Osteoprotegerin staining of calvarium in murine model of wear particle-induced osteolysis; format: in vivo, mice; conditions: wear particles 4 weeks; saline containing CGS21680 1 μM
Procedure: as §2

RANKL [5] = assay: RANKL real time RT-PCR in normal human osteoblasts differentiated from marrow cells; format: cell-based; conditions: CGS21680 1 μM; normalized to GAPDH
Procedure: as §2

NFκB p50/p105 = NFκB p50/p105 nuclear translocation in RAW264.7 cells with RANKL (Western blot); format: cell-based, murine; conditions: CGS21680 1 μM; 30 min with RANKL; PKA-ERK1/2 mechanism
Procedure: RAW264.7 cells were infected with lentiviral constructs expressing shRNA for the catalytic subunit of PKA or a scrambled control. Cells were incubated for 30 min in the presence of RANKL alone, plus CGS21680 (1 μM, CGS) or plus CGS and ZM241385 (1 μM, C+Z) before lysis, separation of nuclear and cytosolic fractions and analysis by Western Blot. Shown are representative Western Blots. Results in the bar graphs are expressed as the means of four independent experiments analyzed densitometrically and normalized to actin. Results were analyzed by two way ANOVA and Bonferroni post-hoc testing.

netrin-1 [6] = assay: Netrin-1 expression in inflammatory infiltrate in wear particle-induced osteolysis; format: in vivo; conditions: wear particle-induced osteolysis in mice
Procedure: as §1
Staining for netrin-1 was carried out in collaboration with Dr. Kathryn Moore's laboratory, an internationally known expert on the role of this protein in macrophage function in atherosclerosis (van Gils, et al., Nat Immunol, 2012, 13(2): 136-43). […]

Compound | osteoclast differentiation in WT cells ([1]; CGS21680 1 μM, RANKL and M-CSF, WT bone marrow cells) | netrin-1 in the supernate of RAW264.7 cells (netrin-1 [2]) | Unc5b expression (Unc5b) | number of sema4D-expressing cells in the calvaria (sema4D-expressing cells) | semaphorin 4D expression by osteoclasts (semaphorin 4D) | new bone formation at sites of wear particle-induced osteolysis [3] | RANK expression in calvarium (RANK) | RANKL expression in calvarium (RANKL [4]) | osteoprotegerin expression in calvarium (osteoprotegerin) | RANKL mRNA in differentiating osteoblasts (RANKL [5]) | NFκB p50/p105 nuclear translocation (NFκB p50/p105) | netrin-1 expression in the inflammatory infiltrate (netrin-1 [6]) | reversal of the A2A receptor agonist (CGS21680) reduction of osteoclast differentiation ([1]; WT cells with CGS21680 1 μM, netrin-1 250 ng/ml)
CCNC(=O)[C@H]1O[C@@H](n2cnc3c(N)nc(NCCc4ccc(CCC(=O)O)cc4)nc32)[C@H](O)[C@@H]1O [CGS21680] | reduces osteoclast differentiation | reduces netrin-1 | reduces Unc5b | dramatically decreased; also recorded: diminishes recruitment of semaphorin 4D positive cells | inhibits | restored | diminishes RANK | diminishes RANK, RANKL | increases osteoprotegerin expression | diminishes RANKL mRNA | inhibits | inhibits its expression | –
Nc1nc(NCCc2ccc(O)cc2)nc2nc(-c3ccco3)nn12 [ZM241385] | – | – | – | – | – | – | – | – | – | – | – | – | reversed
